Results reported in PubChem BioAssay AID1259411 (Chemical Carcinogenesis Research Information System (CCRIS), 2018).
Calls of active or inactive are those of the source. How the calls were made is not given here.

System: rodent carcinogenicity bioassays, tumor incidence
Assay: CCRIS carcinogenicity studies
Conditions: Dose: 0, Dose: 0
Method in brief: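 NCI-built, expert-reviewed records of carcinogenicity and related test outcomes (mutagenicity, tumor promotion/inhibition) compiled from published and report sources, historical span 1985-2011, not updated.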

Measured: carcinogen call

Cc1[nH]cnc1CSCCN=C(NC#N)N(C)N=O
inactive: Species: MOUSE, Strain/Sex: B6C3F1/FEMALE, Route: ORAL, 18.8, 190 MG/D IN DRINKING WATER FOR LIFE ADMINISTERED TO MICE OF MOTHERS EXPOSED TO SAME DOSES THROUGH PREGNANCY AND, 18.8, 190 MG/D IN DRINKING WATER FOR LIFE ADMINISTERED TO MICE OF MOTHERS EXPOSED TO SAME DOSES THROUGH PREGNANCY AND inactive; negative | Species: MOUSE, Strain/Sex: B6C3F1/MALE, Route: ORAL, 18.8, 190 MG/D IN DRINKING WATER FOR LIFE ADMINISTERED TO MICE OF MOTHERS EXPOSED TO SAME DOSES THROUGH PREGNANCY AND, 18.8, 190 MG/D IN DRINKING WATER FOR LIFE ADMINISTERED TO MICE OF MOTHERS EXPOSED TO SAME DOSES THROUGH PREGNANCY AND inactive; negative | Species: MOUSE, Strain/Sex: C57BL/FEMALE, Route: ORAL, 18.8, 190 MG/D IN DRINKING WATER BEGINNING AT 7-8 WK OF AGE AND CONTINUING FOR STUDY DURATION (STUDY DURATION: LIFE S, 18.8, 190 MG/D IN DRINKING WATER BEGINNING AT 7-8 WK OF AGE AND CONTINUING FOR STUDY DURATION (STUDY DURATION: LIFE S inactive; negative | Species: RAT, Strain/Sex: F344/FEMALE, Route: ORAL, 150 MG/L IN DRINKING WATER 5D/WK FOR 106 WK FOR A TOTAL DOSE OF 0, 1600 MG (STUDY DURATION: 131 WK), 150 MG/L IN DRINKING WATER 5D/WK FOR 106 WK FOR A TOTAL DOSE OF 0, 1600 MG (STUDY DURATION: 131 WK) inactive; negative | Species: RAT, Strain/Sex: F344/MALE, Route: ORAL, 150 MG/L IN DRINKING WATER 5D/WK FOR 106 WK FOR A TOTAL DOSE OF 0, 1600 MG (STUDY DURATION: 131 WK), 150 MG/L IN DRINKING WATER 5D/WK FOR 106 WK FOR A TOTAL DOSE OF 0, 1600 MG (STUDY DURATION: 131 WK) inactive; negative | Species: RAT, Strain/Sex: SPRAGUE-DAWLEY/FEMALE, Route: GAVAGE, 50, 500 MG/KG 2/WK FOR 1 YR (STUDY DURATION: LIFETIME), 50, 500 MG/KG 2/WK FOR 1 YR (STUDY DURATION: LIFETIME) inactive; negative | Species: RAT, Strain/Sex: SPRAGUE-DAWLEY/MALE, Route: GAVAGE, 50, 500 MG/KG 2/WK FOR 1 YR (STUDY DURATION: LIFETIME), 50, 500 MG/KG 2/WK FOR 1 YR (STUDY DURATION: LIFETIME) inactive; negative
